Data: the supplement of paper PMC10307832

Columns and labels:
[1] = compound: C#Cc1cccc(Nc2ncnc3cc(OC)c(OCCCCCCC(=O)NO)cc23)c1 [CUDC-101] + Nc1nc2[nH]cc(CCc3ccc(C(=O)N[C@@H](CCC(=O)O)C(=O)O)cc3)c2c(=O)[nH]1 [Pemetrexed] (partner 0.2 µM); assay: relative viability (nuclei count vs DMSO), 5 days (fraction); higher = more cells survive
Summary of the method: (§1)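 A single step with final 0.05% Triton X-100, 1% formaldehyde and 1 ug/ml Hoechst fixed the cells and stained nuclei 5 days after treatment. Lung cancer cell lines in 1536-well plates had been treated by pin tool the day after seeding with one drug alone or a fixed anchor-drug dose plus five library-drug doses (not always all listed) in √10 steps, and nuclei were counted on 4× images. Relative viability is the ratio of nuclei in treated wells to nuclei in vehicle wells, taken as the median of duplicate plates.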

[2] = compound: COc1cc(N2CCC(N3CCN(C)CC3)CC2)ccc1Nc1ncc(Cl)c(Nc2ccccc2S(=O)(=O)C(C)C)n1 [NVP-TAE684] + CC1(C)CCC(c2ccc(Cl)cc2)=C(CN2CCN(c3ccc(C(=O)NS(=O)(=O)c4ccc(N[C@H](CCN5CCOCC5)CSc5ccccc5)c(S(=O)(=O)C(F)(F)F)c4)cc3)CC2)C1 [Navitoclax] (partner 0.5 µM); assay: as above
Summary of the method: as §1

| Cell Line | relative viability ([1]; first compound 0.01 µM) | relative viability ([1]; first compound 0.03162 µM) | relative viability ([1]; first compound 0.1 µM) | relative viability ([1]; first compound 0.3162 µM) | relative viability ([1]; first compound 1 µM) | relative viability ([2]; first compound 0.2 µM) | relative viability ([2]; first compound 0.6325 µM) | relative viability ([2]; first compound 2 µM) |
| --- | --- | --- | --- | --- | --- | --- | --- | --- |
| HCC-78 | 0.876 | 0.942 | 0.921 | 0.912 | 0.862 | 0.433 | 0.535 | 0.282 |
| HCC-44 | 0.629 | 0.657 | 0.71 | 0.645 | 0.693 | – | 1.02 | 0.453 |
| NCI-H1355 | 0.995 | 1.07 | 0.974 | 1.13 | 1.02 | 0.882 | 0.992 | 0.622 |
| NCI-H1993 | 0.586 | 0.616 | 0.637 | 0.606 | 0.517 | – | 0.791 | 0.696 |
| NCI-H1734 | 0.414 | 0.407 | 0.392 | 0.465 | 0.39 | 0.844 | 0.91 | 0.769 |
| IA-LM | – | – | – | – | – | 0.762 | 0.641 | 0.687 |
| SK-MES-1 | 0.896 | 0.946 | 0.922 | 0.972 | 0.724 | 1.29 | 1.22 | 0.78 |
| COR-L 105 | 1.04 | 0.967 | 1.1 | 1.12 | 0.931 | 0.717 | 0.74 | 0.593 |
| EMC-BAC-2 | 0.464 | 0.399 | 0.46 | 0.394 | 0.354 | 1.12 | 1.13 | 0.695 |
| NCI-H1915 | 0.495 | 0.45 | 0.45 | 0.497 | 0.455 | 0.795 | 0.806 | 0.752 |
| NCI-H522 | 0.87 | 0.802 | 1.05 | 0.963 | 0.765 | – | – | – |
| NCI-H358 | 0.181 | 0.187 | 0.166 | 0.161 | 0.154 | – | – | – |
| CAL-12T | 1.45 | 1.13 | 1.19 | 1.14 | 1.18 | 1.35 | 1.18 | 0.407 |
| NCI-H2085 | 0.779 | 0.665 | 0.89 | 0.959 | 0.63 | 1.01 | 1.06 | 0.874 |
| NCI-H1299 | – | – | – | – | – | 1.08 | 1.05 | 1.05 |
| LCLC-97TM1 | 0.166 | 0.172 | 0.183 | 0.157 | 0.135 | 0.321 | 0.495 | 0.13 |
| NCI-H596 | 0.466 | 0.538 | 0.482 | 0.644 | 0.472 | 0.936 | 0.969 | 0.509 |
| NCI-H2228 | 0.352 | 0.359 | 0.333 | 0.392 | 0.346 | 0.443 | 0.421 | 0.129 |
| PC-14 | 0.154 | 0.129 | 0.156 | 0.138 | 0.152 | 1.13 | 1.05 | 0.894 |
| H3255 | 0.62 | 0.543 | 0.408 | 0.449 | 0.304 | 0.6 | 0.417 | 0.382 |
